Where a name gives a salt, the structure may show the parent alone. Read-outs that look alike come from different tables or passages of the source.
Tests used:
[1] = biological target: T1, TYK2 JH2 (Homo sapiens, UniProt P29597); test: TYK2 JH2 binding assay (KINOMEscan KdELECT competitive binding); settings: TYK2 JH2 domain
T1 construct: purchased DiscoverX (KINOMEscan KdELECT service); host or cells: E. coli BL21-derived (T7 phage display) or HEK-293
Outline: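 Competition binding, KdELECT format. Kinase (phage-tagged, E. coli BL21-derived host; or HEK-293, DNA-tagged) + ligand-coated streptavidin beads + cpd, 1 h RT, final DMSO 0.9%. Wash, elute 30 min with 0.5 μM non-biotinylated ligand; qPCR readout. Kd: 11-pt, 3-fold series.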

[2] = system: JAK1/TYK2 pSTAT5 (Tyr694/699) in THP-1 cell line; test: IFNa-stimulated JAK1/TYK2 pSTAT5 (Tyr694/699) inhibition cellular assay, AlphaLISA; type: cell-based; settings: Homo sapiens, THP-1 cells, AlphaLISA (Assay B)
Outline: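 pSTAT5 (Tyr694/699) in lysates quantified by AlphaLISA (615 nm) after 30 min IFNa stimulation (100 ng/mL stock) of THP-1 cells. The cells, 2e4 per well in HBSS, had first been exposed 1 h at 37° C. to eight 6-fold compound dilutions, 10000 down to 0.04 nM final. IC50 fitted by 4PL regression, bottom 0, Hill slope −1.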

[3] = KINOMEscan KdELECT (Assay A), read-out: Biochemical TYK2_JH2_Kd
[4] = IFNa-stimulated, read-out: Cellular THP1_IFNa-pSTATS_IC50
[5] = KINOMEscan KdELECT (Assay A), read-out: Biochemical TYK2_DiscoverX_JH2_BND_Kd
[6] = IFNa-stimulated, read-out: Cellular_THP1_IFNa-pSTATS_TYK2
[7] = DiscoverX KINOMEscan KdELECT (Assay A), read-out: Biochemical TYK2_DiscoverX_JH2_BND_Kd
[8] = IFNa-stimulated pSTAT5 (Tyr694/699), read-out: Cellular_THP1_IFNa-pSTATS_TYK2

T1 sequence (P29597 589-875 limits assumed): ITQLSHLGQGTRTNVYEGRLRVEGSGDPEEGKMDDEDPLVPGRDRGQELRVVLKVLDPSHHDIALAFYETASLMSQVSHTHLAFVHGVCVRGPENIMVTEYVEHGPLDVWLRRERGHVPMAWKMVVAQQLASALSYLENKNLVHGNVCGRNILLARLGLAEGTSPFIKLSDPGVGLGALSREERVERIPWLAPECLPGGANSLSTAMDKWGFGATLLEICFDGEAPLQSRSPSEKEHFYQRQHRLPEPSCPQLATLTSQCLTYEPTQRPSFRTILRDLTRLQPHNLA

| Kd [1, 5] [nM] | IC50 [2, 6] [nM] | Kd [1, 7] [nM] | Structure (SMILES) | other results |
| --- | --- | --- | --- | --- |
|  |  |  | CNc1ncc(-c2c(C)cnn2C2CCCCO2)c2cc(NC(=O)C3CC3)ncc12 (stereo not drawn) [Example 39, N-(5-(4-methyl-1-(tetrahydro-2H-pyran-2-yl)-1H-pyrazol-5-yl)-8-(methylamino)-2,7-naphthyridin-3-yl)cyclopropanecarboxamide] | Kd [1, 3]: 1000 to 10000 nM; IC50 [2, 4]: > 500 nM |
| ≤ 100 | ≤ 500 |  | CNc1ncc(C#Cc2ccc(-n3nccn3)cn2)c2cc(NC(=O)C3CC3)ncc12 [Example 953, N-(5-((5-(2H-1,2,3-triazol-2-yl)pyridin-2-yl)ethynyl)-8-(methylamino)-2,7-naphthyridin-3-yl)cyclopropanecarboxamide] |  |
|  |  |  | CNc1ncc(-c2nc3cc(N4CCC4)ccn3n2)c2cc(NC(=O)C3CC3)ncc12 [Example 188, N-(5-(7-(azetidin-1-yl)-[1,2,4]triazolo[1,5-a]pyridin-2-yl)-8-(methylamino)-2,7-naphthyridin-3-yl)cyclopropanecarboxamide] | Kd [1, 3]: ≤ 100 nM; IC50 [2, 4]: ≤ 500 nM |
|  |  |  | CNc1ncc(-c2ccccc2)c2cc(NC(=O)C3CC3F)ncc12 (stereo not drawn) [Example 103, 2-fluoro-N-(8-(methylamino)-5-phenyl-2,7-naphthyridin-3-yl)cyclopropane-1-carboxamide] | Kd [1, 3]: ≤ 100 nM; IC50 [2, 4]: > 500 nM |
|  |  |  | CNc1ncc(-c2ccn(CC3CCS(=O)(=O)CC3)n2)c2cc(NC(=O)C3CC3)ncc12 [Example 153B, N-(5-(1-((1,1-dioxidotetrahydro-2H-thiopyran-4-yl)methyl)-1H-pyrazol-3-yl)-8-(methylamino)-2,7-naphthyridin-3-yl)cyclopropanecarboxamide] | Kd [1, 3]: ≤ 100 nM; IC50 [2, 4]: > 500 nM |
|  | ≤ 500 | ≤ 100 | CNc1ncc(-c2nc3cc(N4CC(OCCOC)C4)ccc3o2)c2cc(NC(=O)C3CC3)ncc12 [Example 324, N-(5-(5-(3-(2-methoxyethoxy)azetidin-1-yl)benzo[d]oxazol-2-yl)-8-(methylamino)-2,7-naphthyridin-3-yl)cyclopropanecarboxamide] |  |
|  | ≤ 500 | ≤ 100 | CNc1ncc(-c2nc3cc(OC(F)(F)F)ccc3o2)c2cc(NC(=O)C3CC3)ncc12 [Example 218, N-(8-(methylamino)-5-(5-(trifluoromethoxy)benzo[d]oxazol-2-yl)-2,7-naphthyridin-3-yl)cyclopropanecarboxamide] |  |
|  | ≤ 500 | ≤ 100 | CNc1ncc(-c2nc3cc(C4CCN([C@]5(C)COC[C@@H]5O)CC4)ccc3o2)c2cc(NC(=O)C3CC3)ncc12 (single isomer, unassigned) [Example 262] |  |
|  | ≤ 500 | ≤ 100 | CNc1ncc(-c2nc3ccc(N4CCOCC4)cn3n2)c2cc(NC(=O)[C@H]3CC34CC4)ncc12 (single isomer, unassigned) [Example 588, formate] |  |
|  | ≤ 500 | ≤ 100 | CNc1ncc(-c2nc3cc(N4CCOCC4)ccc3o2)c2cc(Nc3cc(C)n(C)n3)ncc12 [Example 426, N6-(1,5-dimethyl-1H-pyrazol-3-yl)-N^1-methyl-4-(5-morpholinobenzo[d]oxazol-2-yl)-2,7-naphthyridine-1,6-diamine] |  |
| ≤ 100 | ≤ 500 |  | CNc1ncc(/C=C/c2ccc(OCC(C)(C)O)cc2)c2cc(NC(=O)C3CC3)ncc12 [Example 784, (E)-N-(5-(4-(2-hydroxy-2-methylpropoxy)styryl)-8-(methylamino)-2,7-naphthyridin-3-yl)cyclopropanecarboxamide] |  |
|  | ≤ 500 | ≤ 100 | CNc1ncc(-c2nc3ccc(N4CCOCC4)cn3n2)c2cc(NC(=O)C3CCC3)ncc12 [Example 528, N-(8-(methylamino)-5-(6-morpholino-[1,2,4]triazolo[1,5-a]pyridin-2-yl)-2,7-naphthyridin-3-yl)cyclobutanecarboxamide] |  |
| ≤ 100 |  |  | CNc1ncc(-c2nc3ccc(C(F)F)cn3n2)c2cc(NC(=O)C3CC3)ncc12 [Example 1040] | IC50 [2, 8]: ≤ 500 nM |
| ≤ 100 |  |  | CNc1ncc(C#Cc2cn(C)c(C)n2)c2cc(NC(=O)[C@H]3C[C@H]3C)ncc12 [Example 1010, (1S,2R)-N-(5-((1,2-dimethyl-1H-imidazol-4-y)ethynyl)-8-(methylamino)-2,7-naphthyridin-3-yl)-2-methylcyclopropane-1-carboxamide] | IC50 [2, 8]: ≤ 500 nM |
|  |  |  | CNc1ncc(-c2ncc(C)o2)c2cc(NC(=O)C3CC3)ncc12 [Example 133, N-(8-(methylamino)-5-(5-methyloxazol-2-yl)-2,7-naphthyridin-3-yl)cyclopropanecarboxamide] | Kd [1, 3]: ≤ 100 nM; IC50 [2, 4]: > 500 nM |
|  |  |  | CNc1ncc(-c2cccc(-c3ncn(C)n3)c2OC)c2cc(NC(=O)C3CC3)ncc12 [Example 49, N-(5-(2-methoxy-3-(1-methyl-1H-1,2,4-triazol-3-yl)phenyl)-8-(methylamino)-2,7-naphthyridin-3-yl)cyclopropanecarboxamide] | Kd [1, 3]: ≤ 100 nM; IC50 [2, 4]: > 500 nM |
| ≤ 100 | ≤ 500 |  | CNc1ncc(C#Cc2cc3ccccn3n2)c2cc(NC(=O)C3CC3)ncc12 [Example 680, N-(8-(methylamino)-5-(pyrazolo[1,5-a]pyridin-2-ylethynyl)-2,7-naphthyridin-3-yl)cyclopropanecarboxamide] |  |
| ≤ 100 |  |  | CNc1ncc(C#Cc2ccc(OC)cn2)c2cc(NC(=O)C3COC3)ncc12 [Example 1084, N-[5-[2-(5-methoxy-2-pyridyl)ethynyl]-8-(methylamino)-2,7-naphthyridin-3-yl]oxetane-3-carboxamide] | IC50 [2, 8]: > 500 nM |
|  |  |  | C/C=C/c1cnc(NC)c2cnc(NC(=O)C3CC3)cc12 [Example 129, (E)-N-(8-(methylamino)-5-(prop-1-en-1-yl)-2,7-naphthyridin-3-yl)cyclopropanecarboxamide] | Kd [1, 3]: ≤ 100 nM; IC50 [2, 4]: > 500 nM |
| ≤ 100 |  |  | CCC(=O)Nc1ccc2oc(-c3cnc(NC)c4cnc(NC(=O)C5CC5)cc34)nc2c1 [Example 1092, N-(8-(methylamino)-5-(5-propionamidobenzo[d]oxazol-2-yl)-2,7-naphthyridin-3-yl)cyclopropanecarboxamide] | IC50 [2, 8]: ≤ 500 nM |
| ≤ 100 | ≤ 500 |  | CNc1ncc(C#Cc2cccc(O)c2)c2cc(NC(=O)C3CC3)ncc12 [Example 593, N-(5-((3-hydroxyphenyl)ethynyl)-8-(methylamino)-2,7-naphthyridin-3-yl)cyclopropanecarboxamide] |  |
|  | ≤ 500 | ≤ 100 | CNc1ncc(-c2nc3cc(OC4CN(S(C)(=O)=O)C4)ccc3o2)c2cc(NC(=O)C3CC3)ncc12 [Example 250, N-(8-(methylamino)-5-(5-((1-(methylsulfonyl)azetidin-3-yl)oxy)benzo[d]oxazol-2-yl)-2,7-naphthyridin-3-yl)cyclopropanecarboxamide] |  |
|  |  |  | CNc1ncc(C2CCCCC2)c2cc(NC(=O)C3CC3)ncc12 [Example 70, N-(5-cyclohexyl-8-(methylamino)-2,7-naphthyridin-3-yl)cyclopropanecarboxamide] | Kd [1, 3]: ≤ 100 nM; IC50 [2, 4]: > 500 nM |
| ≤ 100 | ≤ 500 |  | CNc1nc(CO)c(C#Cc2ccc(OC)cn2)c2cc(NC(=O)C3CC3)ncc12 [Example 800, N-(6-(hydroxymethyl)-5-((5-methoxypyridin-2-yl)ethynyl)-8-(methylamino)-2,7-naphthyridin-3-yl)cyclopropanecarboxamide] |  |
| ≤ 100 | ≤ 500 |  | CNc1ncc(C#Cc2ccccc2OC)c2cc(NC(=O)C3CC3)ncc12 [Example 630, N-(5-((2-methoxyphenyl)ethynyl)-8-(methylamino)-2,7-naphthyridin-3-yl)cyclopropanecarboxamide] |  |
| ≤ 100 |  |  | CNc1ncc(C#Cc2ccc3[nH]ccc3c2)c2cc(NC(=O)C3CC3)ncc12 [Example 1015, N-(5-((1H-indol-5-yl)ethynyl)-8-(methylamino)-2,7-naphthyridin-3-yl)cyclopropanecarboxamide] | IC50 [2, 8]: ≤ 500 nM |
|  | ≤ 500 | ≤ 100 | CNc1ncc(-c2nc3ccccc3o2)c2cc(Nc3ccccn3)ncc12 [Example 427, 4-(benzo[d]oxazol-2-yl)-N^1-methyl-N^6-(pyridin-2-yl)-2,7-naphthyridine-1,6-diamine] |  |
| ≤ 100 |  |  | CNc1ncc(-c2nc3ccc(N4CCO[C@@H](C(C)(C)O)C4)cn3n2)c2cc(NC(=O)C3CC3)ncc12 [Example 1027] | IC50 [2, 8]: ≤ 500 nM |
| ≤ 100 | ≤ 500 |  | CNc1ncc(C#Cc2ccc(Oc3cn(C)cn3)cc2)c2cc(NC(=O)C3CC3)ncc12 [Example 986, N-[8-(methylamino)-5-[2-[4-(1-methylimidazol-4-yl)oxyphenyl]ethynyl]-2,7-naphthyridin-3-yl]cyclopropanecarobxmaide] |  |
|  | ≤ 500 | ≤ 100 | CNc1ncc(-c2nc3cc(N4CCO[C@@H](C)C4)ccc3o2)c2cc(NC(=O)[C@H]3C[C@H]3C)ncc12 [Example 408, (1S,2R)-2-methyl-N-(8-(methylamino)-5-(5-((S)-2-methylmorpholino)benzo[d]oxazol-2-yl)-2,7-naphthyridin-3-yl)cyclopropane-1-carboxamide] |  |

Reference: US20240025906A1 (NEURON23, INC., priority 2022, published 2024)
